In the OligoGym collection:
Oligonucleotides are written 5' to 3', each unit as a sugar letter and its base; * is a phosphorothioate linkage, no mark a phosphodiester; rarer units and linkages stand in square brackets, end groups in braces. Plain capitals give the bases only. d = 2'-deoxy (DNA); r = 2'-OH (RNA)

target: UBE2C; assay: reporter assay of Huesken 2005; conditions: siRNA
Also: test concentration or dose not given here.

Substance | normalised inhibition (eCFP-eYFP dual reporter) [%]
sense rGrArArGrUrUrCrCrUrCrArCrGrCrCrCrUrGrCdTdT / antisense rGrCrArGrGrGrCrGrUrGrArGrGrArArCrUrUrCdAdC | 40.9
sense rGrArGrArArCrCrCrArArCrArUrUrGrArUrArGdTdT / antisense rCrUrArUrCrArArUrGrUrUrGrGrGrUrUrCrUrCdCdT | 66.3
sense rGrArGrCrArGrCrUrGrGrArArCrArGrUrArUrAdTdT / antisense rUrArUrArCrUrGrUrUrCrCrArGrCrUrGrCrUrCdCdA | 85.2
sense rGrArUrGrUrCrArGrGrArCrCrArUrUrCrUrGrCdTdT / antisense rGrCrArGrArArUrGrGrUrCrCrUrGrArCrArUrCdAdT | 48.8
sense rGrCrCrCrArCrArGrUrGrArArGrUrUrCrCrUrCdTdT / antisense rGrArGrGrArArCrUrUrCrArCrUrGrUrGrGrGrCdGdC | 46.7
sense rGrCrCrCrUrGrCrUrArUrCrArCrCrCrCrArArCdTdT / antisense rGrUrUrGrGrGrGrUrGrArUrArGrCrArGrGrGrCdGdT | 63.4
sense rGrCrCrUrGrGrArCrArUrCrCrUrGrArArGrGrAdTdT / antisense rUrCrCrUrUrCrArGrGrArUrGrUrCrCrArGrGrCdAdT | 85.8
sense rGrCrCrUrUrCrUrArGrGrArGrArArCrCrCrArAdTdT / antisense rUrUrGrGrGrUrUrCrUrCrCrUrArGrArArGrGrCdTdC | 92.8
sense rGrCrGrCrCrCrArCrArGrUrGrArArGrUrUrCrCdTdT / antisense rGrGrArArCrUrUrCrArCrUrGrUrGrGrGrCrGrCdAdT | 70.9
sense rGrCrUrArGrArGrUrUrCrCrCrCrArGrUrGrGrCdTdT / antisense rGrCrCrArCrUrGrGrGrGrArArCrUrCrUrArGrCdGdA | 69
sense rGrCrUrArUrCrArCrCrCrCrArArCrGrUrGrGrAdTdT / antisense rUrCrCrArCrGrUrUrGrGrGrGrUrGrArUrArGrCdAdG | 89.4
sense rGrCrUrGrGrArArCrArGrUrArUrArUrGrArArGdTdT / antisense rCrUrUrCrArUrArUrArCrUrGrUrUrCrCrArGrCdTdG | 90.4
sense rGrGrUrArUrArArGrCrUrCrUrCrGrCrUrArGrAdTdT / antisense rUrCrUrArGrCrGrArGrArGrCrUrUrArUrArCrCdTdC | 91.3
sense rGrGrUrCrUrGrCrCrCrUrGrUrArUrGrArUrGrUdTdT / antisense rArCrArUrCrArUrArCrArGrGrGrCrArGrArCrCdAdC | 55.5
sense rGrUrGrGrCrUrArCrCrCrUrUrArCrArArUrGrCdTdT / antisense rGrCrArUrUrGrUrArArGrGrGrUrArGrCrCrArCdTdG | 87.8
sense rUrArArGrCrUrCrUrCrGrCrUrArGrArGrUrUrCdTdT / antisense rGrArArCrUrCrUrArGrCrGrArGrArGrCrUrUrAdTdA | 60.2
sense rUrArGrArGrUrUrCrCrCrCrArGrUrGrGrCrUrAdTdT / antisense rUrArGrCrCrArCrUrGrGrGrGrArArCrUrCrUrAdGdC | 67.2
sense rUrArGrUrCrCrCrUrUrGrArArCrArCrArCrArUdTdT / antisense rArUrGrUrGrUrGrUrUrCrArArGrGrGrArCrUrAdTdC | 76.1
sense rUrArUrGrArUrGrUrCrArGrGrArCrCrArUrUrCdTdT / antisense rGrArArUrGrGrUrCrCrUrGrArCrArUrCrArUrAdCdA | 32.1
sense rUrCrCrUrGrArArGrGrArArArArGrUrGrGrUrCdTdT / antisense rGrArCrCrArCrUrUrUrUrCrCrUrUrCrArGrGrAdTdG | 71.8
sense rUrCrUrArGrGrArGrArArCrCrCrArArCrArUrUdTdT / antisense rArArUrGrUrUrGrGrGrUrUrCrUrCrCrUrArGrAdAdG | 88.8
sense rUrGrArArCrArCrArCrArUrGrCrUrGrCrCrGrAdTdT / antisense rUrCrGrGrCrArGrCrArUrGrUrGrUrGrUrUrCrAdAdG | 86.5
sense rUrGrArGrGrUrArUrArArGrCrUrCrUrCrGrCrUdTdT / antisense rArGrCrGrArGrArGrCrUrUrArUrArCrCrUrCrAdGdG | 80.6
sense rUrGrCrCrCrUrGrUrArUrGrArUrGrUrCrArGrGdTdT / antisense rCrCrUrGrArCrArUrCrArUrArCrArGrGrGrCrAdGdA | 50.8
sense rUrGrCrCrUrGrGrArCrArUrCrCrUrGrArArGrGdTdT / antisense rCrCrUrUrCrArGrGrArUrGrUrCrCrArGrGrCrAdTdA | 49.2
sense rUrGrGrCrUrArCrCrCrUrUrArCrArArUrGrCrGdTdT / antisense rCrGrCrArUrUrGrUrArArGrGrGrUrArGrCrCrAdCdT | 61.3
sense rUrGrGrUrCrUrGrCrCrCrUrGrUrArUrGrArUrGdTdT / antisense rCrArUrCrArUrArCrArGrGrGrCrArGrArCrCrAdCdT | 28.6

target: UBE2M; assay: reporter assay of Huesken 2005; conditions: siRNA

Substance | normalised inhibition (eCFP-eYFP dual reporter) [%]
sense rArArCrGrUrGrCrArGrCrGrCrUrCrCrArUrGrCdTdT / antisense rGrCrArUrGrGrArGrCrGrCrUrGrCrArCrGrUrUdCdT | 61.2
sense rArArCrUrCrCrArUrArArUrUrUrArUrGrGrCrCdTdT / antisense rGrGrCrCrArUrArArArUrUrArUrGrGrArGrUrUdTdA | 49.7
sense rArArGrArGrUrGrGrGrArArGrUrUrUrGrUrGrUdTdT / antisense rArCrArCrArArArCrUrUrCrCrCrArCrUrCrUrUdGdT | 85.1
sense rArCrGrArGrCrUrGrArArCrCrUrGrCrCrCrArAdTdT / antisense rUrUrGrGrGrCrArGrGrUrUrCrArGrCrUrCrGrUdTdT | 66
sense rArCrGrArUrArArArCrUrCrCrArUrArArUrUrUdTdT / antisense rArArArUrUrArUrGrGrArGrUrUrUrArUrCrGrUdAdA | 82.2
sense rArCrGrUrCrUrGrCrCrUrCrArArCrArUrCrCrUdTdT / antisense rArGrGrArUrGrUrUrGrArGrGrCrArGrArCrGrUdTdG | 80.4
sense rArGrArArCrArArCrCrGrGrCrGrGrCrUrGrUrUdTdT / antisense rArArCrArGrCrCrGrCrCrGrGrUrUrGrUrUrCrUdGdC | 61.2
sense rArGrArArGrArArGrGrArGrGrArGrGrArGrUrCdTdT / antisense rGrArCrUrCrCrUrCrCrUrCrCrUrUrCrUrUrCrUdGdC | 59.4
sense rArGrCrArGrCrArArGrArArGrGrCrGrUrCrGrGdTdT / antisense rCrCrGrArCrGrCrCrUrUrCrUrUrGrCrUrGrCrUdGdC | 53
sense rArGrCrUrGrArArCrCrUrGrCrCrCrArArGrArCdTdT / antisense rGrUrCrUrUrGrGrGrCrArGrGrUrUrCrArGrCrUdCdG | 71.8
